# Patent US12042520B2 (SOLUVEG SA, priority 2015, dated 2024)
# Key:
# [1] = piperine used with curcumin; cited from earlier work
# [2] = Curcumin plasma concentration after intravenous administration in the pig (for comparison); assay type: in vivo; conditions: 0.60 grams for 23 kg
Time for which the plasma concentration remains at a constant level [2],Time of plasma concentration peak [2],"concentration at 0 hours ([2]; plasma, 0.6 grams for 23 kg of live weight, 0 hours)","concentration at 3 hours ([2]; plasma, 0.6 grams for 23 kg of live weight, 3 hours)","concentration at 6 hours ([2]; plasma, 0.6 grams for 23 kg of live weight, 6 hours)","concentration at 9 hours ([2]; plasma, 0.6 grams for 23 kg of live weight, 9 hours)","concentration at 24 hours ([2]; plasma, 0.6 grams for 23 kg of live weight, 24 hours)","concentration at 48 hours ([2]; plasma, 0.6 grams for 23 kg of live weight, 48 hours)","concentration at 72 hours ([2]; plasma, 0.6 grams for 23 kg of live weight, 72 hours)",Compound,Effect in the intestine (in words) [1]
–,–,–,–,–,–,–,–,–,O=C(/C=C/C=C/c1ccc2c(c1)OCO2)N1CCCCC1 [piperine],irritating effect in the intestine
10 h,24 h,0 ng/mL,537 ng/mL,557 ng/mL,713 ng/mL,724 ng/mL,537 ng/mL,385 ng/mL,"COc1cc(/C=C/C(=O)CC(=O)/C=C/c2ccc(O)c(OC)c2)ccc1O [Curcumin, curcumin]",–
